Source: patent publication US8309586B2, “Glucokinase activators and pharmaceutical compositions containing the same as an active ingredient” (LG Life Sciences Ltd., priority 2007, dated 2012)

Assays:
[1] = test system: Glucokinase known as hexokinase IV (human GK isoform 1, pancreas form and human GK isoform 2, liver form); assay: Glucokinase enzymatic activity assay (G6PDH-coupled, NADH absorbance at 340 nm); format: biochemical; details: 5 mM glucose, 1 mM ATP, 37 nM GK, 10 min at room temperature
Summary of the method: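 His-tagged human GK isoform 1 (pancreas) or 2 (liver), E. coli-expressed and Ni-purified, 37 nM, with 5 mM glucose, 1 mM ATP, 1 mM NAD and G6PDH in 25 mM Hepes/KCl, 2 mM MgCl2, 1 mM DTT. Ran 10 min at room temperature, read as NADH at 340 nm. AC1.5 is the compound concentration giving 1.5-fold activity.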

male C57BL/6 mice = assay: Blood glucose lowering abilities after single oral administration in male C57BL/6 mouse; format: in vivo; details: 30 mg/kg single oral dose, fed ad libitum, medium: distilled water
Protocol: The glucokinase activators according to the present invention were orally administered in a single dose in the amount of 30 mg/kg body weight to male C57BL/6 mice for 24 h. The media were selected depending on their solubilities from distilled water, pH 1.2 HCl buffer solution, 0.5% methyl cellulose distilled water solution, 10% Gelucire/pH 1.2 HCl buffer solution (1/1). The glucokinase activators were dissolved in the selected media to the medium volume of 0.1 ml/10 g body weight on the basis of the body weight measured on the day of experiment.
Blood glucose was measured by cutting the tail vein before 1 h (time=−1) from the measurement of blood glucose, collecting blood from the tail vein at immediately before the administration of the glucokinase activator (time=0), and at 1, 2, 4, 8, 12, 24 h after administration, loading on the automatic glucometer (Accu-Chek® Active, Roche, USA), dropping 5 μl of the blood to a yellow pad of the Accu-Chek® Active glucose strip, and recording the measured value.
Mice involved in the experiment were divided into groups (n=10, in the case of media group n=4) on one day before the experiment so that each group has uniform average and standard deviation for blood glucose after 4 hour fasting. Mice were fed ad libitum.
The blood glucose lowering abilities in % of the representative compounds with respect to the 100% of media control were shown in the following Table 2.

AC1.5 (the compound concentration at which the enzymatic activity is increased by 1.5 times) [1] | Compound | Hypoglycemic ability (% medium): blood glucose AUC for 24 h with respect to 100% of media control (male C57BL/6 mice)
5 nM | Clc1cc(NC2CCCC2)c2[nH]c(C3=N[C@H](CCN4CCNCC4)CS3)cc2c1 [Example 96, {5-chloro-2-[(R)-4-(2-piperazin-1-yl-ethyl)-4,5-dihydro-thiazol-2-yl]-1H-indol-7-yl}-cyclopentyl-amine] | 81%
11 nM | Cc1cc(NC2CCCC2)c2[nH]c(C3=N[C@H](CC(=O)O)CS3)cc2c1 [Example 61, [(R)-2-(7-cyclopentylamino-5-methyl-1H-indol-2-yl)-4,5-dihydro-thiazol-4-yl]-acetic acid] | 54%
20 nM | CCOc1cc(NC2CCCC2)c2[nH]c(C3=N[C@H](CC(=O)O)CS3)cc2c1 [Example 52, [(R)-2-(7-cyclopentylamino-5-ethoxy-1H-indol-2-yl)-4,5-dihydro-thiazol-4-yl]acetic acid] | 62%
18 nM | O=C(O)C[C@@H]1CSC(c2cc3cc(Oc4ccccc4)cc(NC4CCCC4)c3[nH]2)=N1 [Example 54, [(R)-2-(7-cyclopentylamino-5-phenoxy-1H-indol-2-yl)-4,5-dihydro-thiazol-4-yl]-acetic acid] | 52%
138 nM | CS(=O)(=O)CC[C@@H]1CSC(c2cc3cccc(NC4CCOCC4)c3[nH]2)=N1 [Example 145, {2-[(R)-4-(2-methanesulfonyl-ethyl)-4,5-dihydro-thiazol-2-yl]-1H-indol-7-yl}-(tetrahydro-pyran-4-yl)-amine] | –
12 nM | CCOC(=O)CC[C@@H]1CSC(c2cc3cc(F)cc(NC4CCCC4)c3[nH]2)=N1 [Example 160, 3-[(R)-2-(7-cyclopentylamino-5-fluoro-1H-indol-2-yl)-4,5-dihydro-thiazol-4-yl]-propionic acid ethyl ester] | –

Further lines, the compound ahead of its results:

Compound | AC1.5 (the compound concentration at which the enzymatic activity is increased by 1.5 times) [1] | Hypoglycemic ability (% medium): blood glucose AUC for 24 h with respect to 100% of media control (male C57BL/6 mice)
O=C(O)C[C@@H]1CSC(c2cc3cccc(Oc4ccccc4)c3[nH]2)=N1 [Example 174, [(R)-2-(7-phenoxy-1H-indol-2-yl)-4,5-dihydro-thiazol-4-yl]-acetic acid] | – | 51%
O=C(O)C[C@@H]1CSC(c2cc3cc(F)cc(NC4CCCC4)c3[nH]2)=N1 [Example 37, [(R)-2-(7-cyclopentylamino-5-fluoro-1H-indol-2-yl)-4,5-dihydro-thiazol-4-yl]acetic acid] | – | 67%
O=C(O)C[C@@H]1CSC(c2cc3cccc(NC4CCCC4)c3[nH]2)=N1 [Example 42, [(R)-2-(7-cyclopentylamino-1H-indol-2-yl)-4,5-dihydro-thiazol-4-yl]acetic acid] | – | 57%
O=C(O)C[C@@H]1CSC(c2cc3cc(Br)cc(NC4CCCC4)c3[nH]2)=N1 [Example 33, [(R)-2-(5-bromo-7-cyclopentylamino-1H-indol-2-yl)-4,5-dihydro-thiazol-4-yl]acetic acid] | – | 81%
OC[C@@H]1CSC(c2cc3cc(Br)cc(NC4CCCC4)c3[nH]2)=N1 [Example 10, [(R)-2-(5-bromo-7-cyclopentylamino-1H-indol-2-yl)-4,5-dihydro-thiazol-4-yl]-methanol] | 6 nM | –
OC[C@@H]1CSC(c2cc3cc(Oc4cccnc4)cc(NC4CCOCC4)c3[nH]2)=N1 [Example 14, {(R)-2-[5-(pyridin-3-yloxy)-7-(tetrahydro-pyran-4-ylamino)-1H-indol-2-yl]-4,5-dihydro-thiazol-4-yl}-methanol] | 8 nM | –
